This note sets out measurements from patent US5380759A, “Methyl N-[6-(3,4,5-trimethoxybenzloxy)imidazo[1,2-b]pyridazin-2-zyl]carbamate used to treat leukemia” (priority 1987, dated 1995).

In data set [1] the test system is tubulin. Description: Turbidimetric assay of tubulin polymerisation. Type of data set: biochemical, horse. As to conditions: 37° C., increase in A350nm 10 min after lag phase; read-out: Total tubulin polymerisation IC50. On the procedure:
A) Tubulin Polymerisation Assay
1. Preparation of tubulin
All manipulations are performed at 4° C. unless otherwise specified. The horse brain is washed in ice-cold BBG buffer and superficial meninges and blood vessels removed. After weighing, cerebral cortices are chopped, homogenised in 75 ml BBG buffer/100 g brain, centrifuged at 6500 g for 15 min and after removal of […], re-centrifuged at 100,000 g for 75 min. The volume of the supernatant (Vml) is measured and V/10 ml 10 mM GTP (Li salt) in H2 O added. The mixture is incubated in sealed centrifuge tubes (30 min, 34° C.) in a shaking water bath to polymerise the tubulin. After polymerisation the tubes are balanced and centrifuged at 100,000 g, (1 h at 27° C.) in a pre-warmed rotor. The high-speed pellet is resuspended in V/4 ml BB buffer and the preparation stirred on ice for 30 min and centrifuged at 100,000 g (1 h at 4° C.) to remove the cold-stable microtubules. An equal volume of BB2G buffer is added to the supernatant which is frozen rapidly in 5 ml samples in plastic weighing dishes floated on a solid CO2 /ethanol slurry, and stored overnight at -80° C. After ca. 18 hours the frozen samples of tubulin are thawed, 10 mM GTP in H2 O added to give a final concentration of 1 mM, and the new volume (Wml), is measured. The polymerisation/depolymerisation cycle is repeated exactly as above but substituting W for V to give twice-cycled tubulin.
2. Turbidimetric Assay of Tubulin Polymerisation
Apparatus: recording spectrophotometer with a 6-position, thermostatted cuvette holder; full scale deflection=0.2 absorbance units.
In a 1 ml spectrophotometer cuvette are mixed 100 μl 10 mM GTP (Li salt) made up in BB buffer, 10 μl H2 O or DMSO-depending on selected drug solvent, BB buffer and tubulin preparation such that the final increase in A350nm is 0.15 units after 16 mins (approx. 100 μl of tubulin prep. or 2.5 mg protein) in a final volume of 1 ml at 37° C. All reagents are stored on ice.
Polymerisation is initiated by raising the temperature to 37° C. and the increase in A350nm of triplicate samples against a reference cuvette is recorded. The reference sample includes a similar incubation mixture either without tubulin or with the addition of 1 mM Ca^2+. The increase over initial A350nm 10 min after the completion of lag phase (control polymerisation is 80% complete within this time) is calculated and expressed as a percentage of the control value, for a range of drug concentrations. The drug concentration required to give a 50% change (IC50) in the control value is determined.

The nature of data set [2]: LD20 (Mouse). As to conditions: i.p. days 1, 5 and 9, CD2-F1 mice, observed up to 14 days. Type of data set: in vivo.
For data set [3], the system named is P388/BCNU. The data set can be described thus: In vivo activity against drug resistant tumour P388/BCNU. The arrangement: species or system mouse. As to conditions: optimum dose 7.5 mg/kg. As for the experimental part: (§1) CD2-F1 mice, of the same sex, weighing within a 3 gram range surrounding 20 g, are used for this test. Control and test animals are injected intraperitoneally with a suspension of 10^6 viable P388/O tumour cells on day 0. In each test several dose levels which bracket the LD20 for the compound are evaluated; each dose level group contains 6 animals. The test compounds are prepared either in physiologic saline containing 0.05% Tween 80 or distilled water containing 5% dextrose and are administered intraperitoneally on days 1,5 and 9 relative to tumour implant. Doses are on a mg/kg basis according to individual animals' body weights. The day of death for each animal is recorded and the median day of death identified for each group. The difference between the median survival time for treated and control groups is expressed as a percentage increase in life span (% ILS).
(§2) E. Activity Against Drug-Resistant Tumours
Using a similar procedure to the Lymphocytic Leukaemia P388/O test, the compound of Example 1 was evaluated against P388/O tumours which had been made resistant to the following standard, clinically used anti-tumour agents:
bis-chloronitrosourea (BCNU)

For data set [4], the system named is P388/ActD. The data set can be described thus: In vivo activity against drug resistant tumour P388/ActD. Set-up: species or system mouse. As to conditions: optimum dose 12.5 mg/kg. As for the experimental part:
as §1, §2
(§3) Using a similar procedure to the Lymphocytic Leukaemia P388/O test, the compound of Example 1 was evaluated against P388/O tumours which had been made resistant to the following standard, clinically used anti-tumour agents: […]

In data set [5] the test system is P388/5FU. Description: In vivo activity against drug resistant tumour P388/5FU. The arrangement: species or system mouse. As to conditions: optimum dose 10.0 mg/kg. As for the experimental part: as §1, §2, §3
The test system of data set [6] is DLD-1 human colon carcinoma cells. The data set can be described thus: In vitro activity against human tumour cell line DLD-1 (proliferation). Type of data set: cell-based. As to conditions: DLD-1, 96 h, methylene blue, read-out: IC50. On the procedure:
(§4) Cells from the human tumour cell lines DLD-1, HCT-116, WiDr and A549 are exposed to serially diluted concentrations of test compounds over a 96 hour period in culture. The ability of such cells to proliferate over the test period is determined.
(§5) Cells in log growth are plated into 96 well multiwell tissue culture dishes in 100 μl/well of RPMI 1640 culture medium supplemented with 10% foetal calf serum, antibiotics and test compound. All compounds are formulated initially at appropriate concentrations in DMSO, the final concentrations in this solvent being twenty times that required in the plate. A final 1 in 10 dilution in complete medium is then made before adding 100 μl to each well of the plate. All compounds are evaluated at concentrations ranging serially in four fold decrements from a top concentration some four fold greater than that already known to inhibit the proliferation of cells from the mouse lymphoid neoplasm, P388D1 by about 80 to 90 percent in a primary proliferative assay.
(§6) After 96 hours the proliferation of cells exposed to test compound is compared with control untreated cells by one of two methods:
a) Culture supernatants are aspirated and cells fixed and stained by adding a solution of methylene blue (5 g per liter of 50% ethanol: water, 100 μl/well). After 30 minutes at room temperature unbound stain is washed off by immersing plates in water. Stained cells are solubilised overnight using 1% Sarkosyl (Sigma) in phosphate-buffered saline (100 μl/well). Absorbances are read by an ELISA plate spectrophotometer at a wavelength of 620 nm. The IC50 is defined as that concentration of drug which decreases absorbance to 50% of that in control (drug-free) cultures. This method is used for the DLD-1 cell line.

In data set [7] the test system is WiDr human colon adenocarcinoma cells. The data set can be described thus: In vitro activity against human tumour cell line WiDr (proliferation). As to conditions: 96 h, MTT, read-out: IC50. Type of data set: cell-based. As for the experimental part:
as §4, §5, §6
(§7) b) 20 μl of MTT (5 mg/ml in PBS) is added to each well. After an incubation period of 4 hours the medium from each well is aspirated and replaced with 200 μl DMSO to dissolve the formazan crystals formed. Absorbances are read by an ELISA plate spectrophotometer at a wavelength of 540 nm. The IC50 is defined as that concentration of drug which decreases absorbance to 50% of that in control (drug-free) cultures. This method is used for the WiDr, HCT-116 and A549 cell lines.

Data set [8] relates to A549 human lung carcinoma cells. Description: In vitro activity against human tumour cell line A549 (proliferation). As to conditions: A549, 96 h, MTT, read-out: IC50. Type of data set: cell-based. On the procedure: as §4, §5, §6, §7

As to `COC(=O)Nc1cn2nc(OCc3cc(OC)c(OC)c(OC)c3)ccc2n1` [Example 1, Methyl N-[6-(3,4,5-trimethoxybenzyloxy)imidazo[1,2-b]pyridazin-2-yl]carbamate], the IC50 is 0.42 µM in data set [1], 0.0116 µM in data set [6], 0.03 µM in data set [7] and 0.024 µM in data set [8]. In data set [2], this compound had an LD50 of 20 to 30 mg/kg. Also, the “60 Day Survivors” value is 0/6 in data set [3], 1/6 in data set [4] and 0/6 in data set [5]. Further, the figures for the “% ILS” value in data set [3], in data set [4] and in data set [5] were “+131%”, “+109%” and “+92%”, respectively.

By IC50 is commonly meant the concentration that gives 50% inhibition. What is called LD50 is the dose expected to kill half of the subjects tested. Low values mean a more toxic substance, high ones a less toxic substance.
